Structures can show the parent of a compound that is named as a salt.

The target in this experiment is T1, hNPRA (Homo sapiens, UniProt P16066).
T1 construct: expressed in transfected cells
T1 sequence (P16066 33-1061): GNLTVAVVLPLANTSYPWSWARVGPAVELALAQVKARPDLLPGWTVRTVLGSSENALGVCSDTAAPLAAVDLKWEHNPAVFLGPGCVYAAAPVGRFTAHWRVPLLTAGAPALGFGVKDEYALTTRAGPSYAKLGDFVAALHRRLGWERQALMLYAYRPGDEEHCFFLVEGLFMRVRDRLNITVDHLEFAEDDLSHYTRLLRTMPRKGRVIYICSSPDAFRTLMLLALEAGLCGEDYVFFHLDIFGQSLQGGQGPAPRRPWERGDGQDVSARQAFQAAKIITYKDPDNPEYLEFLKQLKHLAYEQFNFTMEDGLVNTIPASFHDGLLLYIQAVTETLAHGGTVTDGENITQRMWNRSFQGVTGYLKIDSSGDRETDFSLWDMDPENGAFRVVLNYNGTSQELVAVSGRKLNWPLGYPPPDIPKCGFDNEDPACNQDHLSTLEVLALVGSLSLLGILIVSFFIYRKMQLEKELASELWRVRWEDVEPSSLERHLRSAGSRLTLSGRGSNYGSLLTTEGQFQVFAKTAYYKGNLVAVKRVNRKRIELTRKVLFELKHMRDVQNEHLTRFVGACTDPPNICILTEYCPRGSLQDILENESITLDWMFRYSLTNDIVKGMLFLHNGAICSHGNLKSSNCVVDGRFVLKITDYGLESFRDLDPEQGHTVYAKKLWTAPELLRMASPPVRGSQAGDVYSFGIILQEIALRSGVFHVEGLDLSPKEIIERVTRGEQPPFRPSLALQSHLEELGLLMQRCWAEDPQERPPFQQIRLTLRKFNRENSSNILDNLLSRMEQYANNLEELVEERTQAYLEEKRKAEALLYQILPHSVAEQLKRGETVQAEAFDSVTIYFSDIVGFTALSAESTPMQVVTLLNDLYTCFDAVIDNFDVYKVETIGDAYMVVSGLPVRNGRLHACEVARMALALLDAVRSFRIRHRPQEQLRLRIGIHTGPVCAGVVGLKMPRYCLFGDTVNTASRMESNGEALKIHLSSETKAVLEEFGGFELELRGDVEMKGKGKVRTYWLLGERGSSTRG
Briefly: NPRA Functional Cell Assay (cGMP HTRF, NPRA HEK JumpIn stable cells). The following applies: cGMP production, 1 hour at 37° C., 10-point dose response. The class given is cell-based. The source says: NPRA Functional Cell Assay
Assay Buffer components HEPES and Opti-MEM® I Reduced-Serum with Glutamine (no phenol red) were from Gibco/Invitrogen (Thermo Fisher Scientific, Waltham, MA USA). 3-Isobutyl-1-methylxanthine (IBMX) and 4-(3-Butoxy-4-methoxybenzyl) imidazolidin-2-one (RO20) were obtained from Sigma-Aldrich (St. Louis, MO, USA). DPBS (Dulbecco's phosphate-buffered saline) without Ca2+ and Mg2+ was purchased from GE Healthcare Bio-Sciences (Pittsburgh, PA, USA). 384 well white Optiplates were from Perkin Elmer (Atlantic Highlands, NJ, USA). Human ANP (Atrial Natriuretic Peptide) (1-28) was purchased from Sigma-Aldrich (Catalog #A1663) and rat ANP (1-28) from Bachem (Torrance, CA, USA) (Catalog #H2100). Human-BNP (Human-Brain Natriuretic Peptide) (1-32 AA) was purchased from American Peptide Company (Sunnyvale, CA, USA) (product No. 14-1-90). cGMP kits were purchased from Cisbio. The assay ready frozen (ARF) Human/rat/dog NPRA HEK JumpIn Stable frozen cells (low passage number 5-11) were prepared in-house.
Test compounds were titrated in DMSO in a 10-point dose response in a separate step followed by a 100-fold dilution into the reaction. Positive response for each assay was determined using 10 nM rat-ANP peptide (rat cells) or 50 nM h-ANP peptide (human and dog cells).
Cells were thawed, washed with DPBS and resuspended in assay buffer (Opti-MEM+Glutamine, phenol red free media, 10 mM HEPES, 100 uM IBMX and 100 uM RO20) that was warmed to 37° C. Cells were then transferred to microplates via a Microplate Combi dispenser at a density of 1500, 400 and 1200 cells/well for human, rat and dog cells respectively, followed by acoustic transfer (Echo) of compound.
Compounds and cells were incubated at 37° C. with 5% CO2 for 1 hour, after which the cells were lysed and cGMP was captured using a CisBio cGMP HTRF assay kit. The TRF signal was measured with an Envision plate reader (emission set to 615 and 665 nm) after 1 hour incubation at ambient temperature. The TRF signal was converted to [cGMP] through the use of a cGMP calibration curve on each microplate. EC50's were generated from the resulting dose response curves by use of a 4 parameter logistic algorithm.
Assay Buffer components HEPES and Opti-MEM® I Reduced-Serum with Glutamine (no phenol red) were from Gibco/Invitrogen. 3-Isobutyl-1-methylxanthine (IBMX) and 4-(3-Butoxy-4-methoxybenzyl) imidazolidin-2-one (RO20) were obtained from Sigma. DPBS (Dulbecco's phosphate-buffered saline) without Ca2+ and Mg2+ was purchased from GE Healthcare Bio-Sciences (Pittsburgh, PA, USA). 384 well white Optiplates were from Perkin Elmer (Atlantic Highlands, NJ, USA). Human ANP (1-28) was purchased from Sigma (A1663) and rat ANP (1-28) from Bachem (H2100). Human-BNP (1-32 AA) was purchased from American Peptide Company (Sunnyvale, CA, USA) (product No. 14-1-90). cGMP kits were purchased from Cisbio (Bedford, MA, USA). The assay ready frozen (ARF) Human/rat/dog NPRA HEK JumpIn Stable frozen cells (low passage number 5-11) were prepared in-house.
Compounds and cells were incubated at 37° C. with 5% CO2 for 1 hour, after which the cells were lysed and cGMP was captured using a CisBio cGMP HTRF assay kit. The TRF signal was measured with an Envision® plate reader (Perkin Elmer) (emission set to 615 and 665 nm) after 1 hour incubation at ambient temperature. The TRF signal was converted to [cGMP] through the use of a cGMP calibration curve on each microplate. EC50's were generated from the resulting dose response curves by use of a 4 parameter logistic algorithm.
hNPRA EC50 (nM) were determined for the compounds of Example 1 through Example 273 and are reported in the Experimental section of this application.
For `CC(C)(C)[C@H]1CCc2nc3sc(C(=O)N[C@H](CCN4CC(c5ccccn5)C4)c4cccc(NS(C)(=O)=O)c4)cc3cc2C1` (racemic) [Example 22, ammonium; methylsulfonyl-[3-[rac-(1R)-3-[3-(2-pyridyl)azetidin-1-y1]-1-[[rac-(6S)-6-tert-butyl-5,6,7,8-tetrahydrothieno[2,3-b]quinoline-2-carbonyl]amino]propyl]phenyl] azanide], the EC50 came out at 1790 nM.

`CC(C)(C)[C@H]1CCc2nc3sc(C(=O)N[C@H](CCN4CCC(c5ccccn5)CC4)c4cccc(NS(C)(=O)=O)c4)cc3cc2C1` (racemic) [Example 23, ammonium;methylsulfonyl-[3-[rac-(1R)-3-[4-(2-pyridyl)-1-piperidyl]-1-[[rac-(6S)-6-tert-butyl-5,6,7,8-tetrahydrothieno[2,3-b]quinoline-2carbonyl]amino]propyl]phenyl]azanide] registered an EC50 of 1790 nM.

Compound `CC(C)(C)[C@H]1CCc2nc3sc(C(=O)N[C@H](CCN[C@H]4CCCC(F)(F)[C@@H]4O)c4cccc(NS(C)(=O)=O)c4)cc3cc2C1` (racemic) [Example 24, ammonium; methylsulfony 1-[3-[rac-(1R)-1-[[rac-(6S)-6-tert-buty1-5,6,7,8-tetrahydrothieno[2,3-b]quinoline-2-carbonyl]amino]-3-[[rac-(1S,2R)-3,3-difluoro-2-hydroxy-cyclohexyl]amino]propyl]phenyl]azanide] had an EC50 of 1970 nM.

Consider `CN(C)CC[C@@H](NC(=O)c1cc2cc3c(nc2s1)CC[C@H](C(C)(C)C)C3)c1ccc(-c2ccc(=O)[nH]c2)cc1` (racemic) [Example 25, dimethyl-[rac-(3R)-3-[4-(6-oxo-1H-pyridin-3-yl)phenyl]-3-[{rac-(6S)-6-tert-butyl-5,6,7,8-tetrahydrothieno[2,3-b]quinoline-2-carbonyl]amino]propyl] ammonium;formate], for which a half-maximal response (EC50) required 218 nM.

Regarding `CC(C)(C)[C@H]1CCc2nc3sc(C(=O)N[C@H](CCN[C@H]4C[C@@H](CO)[C@H](O)[C@@H]4O)c4ccc(-c5ccc(=O)[nH]c5)cc4)cc3cc2C1` (racemic) [Example 26, [rac-(1S,2R,3S,4S)-2,3-dihydroxy-4-(hydroxymethyl)cyclopentyl]-[rac-(3R)-3-[4-(6-oxo-1H-pyridin-3-yl)phenyl]-3-[rac-(6S)-6-tert-butyl-5,6,7,8-tetrahydrothieno[2,3-b]quinoline-2-carbonyl]amino]propyl] ammonium;formate], the EC50 came to 386 nM.

`CC(C)(C)C1CCc2nc3sc(C(=O)NC(CCN4CC5C(CO)C5C4)c4ccc(-c5ccc(=O)[nH]c5)cc4)cc3cc2C1` (racemic) [Example 27, rac-(6S)-6-tert-butyl-N-[rac-(1R)-3-[6-(hydroxymethyl)-3-azoniabicyclo[3.1.0]hexan-3-yl]-1-[4-(6-oxo-1H-pyridin-3-yl)phenyl]propyl]-5,6,7,8-tetrahydrothieno[2,3-b]quinoline-2-carboxamide;formate] came in with an EC50 of 408 nM.

In turn, `CN(C)C1CCN(CCC(NC(=O)c2cc3cc4c(nc3s2)CCC(C(C)(C)C)C4)c2ccc(-c3ccc(=O)[nH]c3)cc2)CC1` (racemic) [Example 28, dimethyl-[1-[rac-(3R)-3-[4-(6-oxo-1H-pyridin-3-yl)phenyl]-3-[[rac-(6S)-6-tert-butyl-5,6,7,8-tetrahydrothieno[2,3-b]quinoline-2-carbonyl]amino]propyl]-4-piperidyl]ammonium;formate] registered an EC50 of 446 nM.

Compound `CC(C)(C)[C@H]1CCc2nc3sc(C(=O)N[C@H](CCN4CCC(n5cnnc5)CC4)c4ccc(-c5ccc(=O)[nH]c5)cc4)cc3cc2C1` (racemic) [Example 29, rac-(6S)-6-tert-butyl-N-[rac-(1R)-1-[4-(6-oxo-1H-pyridin-3-yl)phenyl]-3-[4-(1,2,4-triazol-4-yl)piperidin-1-ium-1-yl]propyl]-5,6,7,8-tetrahydrothieno[2,3-b]quinoline-2-carboxamide;formate] yielded an EC50 of 448 nM.

On to `CC(C)(C)[C@H]1CCc2nc3sc(C(=O)N[C@H](CCN4CCCCC4CO)c4ccc(-c5ccc(=O)[nH]c5)cc4)cc3cc2C1` (mixture of isomers) [Example 30, rac-(6S)-6-tert-butyl-N-[rac-(1R)-3-[2-(hydroxymethyl)piperidin-1-ium-1-yl]-1-[4-(6-oxo-1H-pyridin-3-yl)phenyl]propyl]-5,6,7,8-tetrahydrothieno[2,3-b]quinoline-2-carboxamide;formate], for which the EC50 stood at 455 nM.

`CC(C)(C)[C@H]1CCc2nc3sc(C(=O)N[C@H](CCN4CCC[C@H](O)[C@H]4CO)c4ccc(-c5ccc(=O)[nH]c5)cc4)cc3cc2C1` (racemic) [Example 31, rac-(6S)-6-tert-butyl-N-[rac-(1R)-1-[4-(6-oxo-1H-pyridin-3-yl)phenyl]-3-[rac-(2R,3S)-3-hydroxy-2-(hydroxymethyl)piperidin-1-ium-1-yl]propyl]-5,6,7,8-tetrahydrothieno[2,3-b]quinoline-2-carboxamide; formate] came in with an EC50 of 473 nM.

For the compound `CC(C)(C)[C@H]1CCc2nc3sc(C(=O)N[C@H](CCN4CCCCC4)c4ccc(-c5ccc(O)nc5)cc4)cc3cc2C1` (racemic) [Example 32, rac-(6S)-6-tert-butyl-N-[rac-(1R)-1-[4-(6-oxo-1H-pyridin-3-yl)phenyl]-3-piperidin-1-ium-1-yl-propyl]-5,6,7,8-tetrahydrothieno[2,3-b]quinoline-2-carboxamide;formate], the EC50 amounted to 478 nM.

Compound `CC(C)(C)[C@H]1CCc2nc3sc(C(=O)N[C@H](CCN4CCCC4)c4ccc(-c5ccc(=O)[nH]c5)cc4)cc3cc2C1` (racemic) [Example 33, rac-(6S)-6-tert-butyl-N-[rac-(1R)-1-[4-(6-oxo-1H-pyridin-3-yl)phenyl]-3-pyrrolidin-1-ium-1-yl-propyl]-5,6,7,8-tetrahydrothieno[2,3-b]quinoline-2-carboxamide;formate] registered an EC50 of 511 nM.

As a reminder, the EC50 is the concentration at which the effect is half-maximal. A high value points to a less potent agent.
